Test [1] can be described thus: Inhibition of CD28-CD80 interaction in the absence of fetal bovine serum (FBS).
For test [2], the target named is T-cell surface glycoprotein CD4 (Homo sapiens, UniProt P01730). Description: Inhibitory concentration against CD4-gp120 binding in the absence of fetal bovine serum (FBS); Range is 0.13-0.5 uM.
The nature of test [3]: Inhibition of CD28-CD80 interaction in the presence of fetal bovine serum (FBS).

The IC50 is the concentration at which inhibition is half-maximal. `CC(=O)CC(O)(C(=O)N[C@@H]1Cc2c[nH]c3cc(ccc23)-c2cc3cc(c2O)Oc2ccc(cc2)C[C@@H](C(=O)N[C@@H](C(=O)O)c2ccc(O)cc2)N(C)C(=O)[C@@H](c2cc(Cl)c(O)c(Cl)c2)NC(=O)[C@@H]3NC(=O)[C@@H](c2cc(Cl)c(O)c(Cl)c2)NC1=O)c1cc(Cl)c(O)c(Cl)c1` (some centres undefined): the IC50 is 8 nM in test [1], 130 nM in test [2] and 220 nM in test [3].

Regarding `CN1C(=O)[C@@H](c2cc(Cl)c(O)c(Cl)c2)NC(=O)[C@@H]2NC(=O)[C@@H](c3cc(Cl)c(O)c(Cl)c3)NC(=O)[C@H](NC(=O)C(=O)c3cc(Cl)c(O)c(Cl)c3)Cc3c[nH]c4c(cccc34)-c3cc2cc(c3O)Oc2ccc(cc2)C[C@H]1C(=O)N[C@@H](C(=O)O)c1ccc(O)cc1` [CHLOROPEPTIN], the IC50 stood at 10 nM in test [1], 130 nM in test [2] and 380 nM in test [3].

Take `CN1C(=O)[C@@H](c2cc(Cl)c(O)c(Cl)c2)NC(=O)[C@@H]2NC(=O)[C@@H](c3cc(Cl)c(O)c(Cl)c3)NC(=O)[C@H](NC(=O)C(=O)c3cc(Cl)c(O)c(Cl)c3)Cc3c[nH]c4cc(ccc34)-c3cc2cc(c3O)Oc2ccc(cc2)C[C@H]1C(=O)N[C@@H](C(=O)O)c1ccc(O)cc1` [ISOCOMPLESTATIN]: the IC50 in test [1] is 10 nM; in test [2], 130 nM; in test [3] it was 420 nM.
